The results in this text go back to patent EP0872233A1, “Antiretroviral compositions with improved bioavailability” (JANSSEN PHARMACEUTICA N.V., priority 1997, dated 1998).

As usually defined, the Cmax is the maximum level reached in the sampled fluid or tissue.

One series in a line: solubility in water. Type of series: physicochemical. The following applies: room temperature, pH of 6.5, racemic free base.
Series [1] in a line: thermal stability at melt-extrusion temperatures. Type of series: physicochemical. To be noted: temperatures up to 300°C. The procedure:
One of the most important parameters of melt extrusion is the temperature at which the melt-extruder is operating. […] At temperatures lower than 120°C, loviride will not dissolve sufficiently in most water-soluble polymers and the extrudate will not have the required bioavailability. In addition, the process is difficult because of the high viscosity of the mixture. At temperatures of more than 300°C the water-soluble polymer may decompose to an unacceptable level.

The conditions of series [2]: in vivo.
Details of series [3]: AUClast: dose or concentration left out as unconfirmed. The following applies: for Cmax: human, in vivo, po, 100 mg. The procedure:
In this study 12 healthy volunteers in fasting conditions were administered a tablet of example 1 (100 mg loviride). Plasma levels of each of the loviride enantiomers were determined and the following bioavailability data were calculated therefrom.

In the case of `CC(=O)c1ccc(C)cc1NC(C(N)=O)c1c(Cl)cccc1Cl` (racemic) [loviride, (±)-α-[(2-acetyl-5-methylphenyl)amino]-2,6-dichlorobenzeneacetamide], the solubility entry in “solubility in water” is on record as “less than 0.1 mg/100ml”. Besides, the thermal stability result in series [1] is reported as “thermally very stable”. Also, the half-life result in series [2] is “short”.

For `CC(=O)c1ccc(C)cc1NC(C(N)=O)c1c(Cl)cccc1Cl` (single isomer, unassigned; (+)) [(+)-loviride], in series [3], the AUClast is 18,180 ± 7,197 ng.h/ml and the Cmax worked out at 890 ± 292 ng/mL.

Take `CC(=O)c1ccc(C)cc1NC(C(N)=O)c1c(Cl)cccc1Cl` (single isomer, unassigned; (-)) [(-)-loviride]: in series [3], the AUClast was 1,347 ± 512 ng.h/ml and the Cmax worked out at 155 ± 66 ng/mL.
